# Results as given in patent US20140004209A1, “AUTOPHAGY INDUCER AND INHIBITOR COMBINATION THERAPY FOR THE TREATMENT OF NEOPLASMS” (GENENTECH, INC., priority 2010, published 2014).
# Entries after “also recorded” stand apart in the source; their conditions may differ.
# Assays:
# [1] = tested on: PC3 cells; experiment: Time-lapse microscopy of PC3 cells; assay type: cell-based, human; conditions: 10 μM, 5% FBS, 3 d
# Description: Time-lapse video microscopy: Cells cultured in 24-well plates were imaged on an Olympus IX81 inverted microscope under environmental control (37° C. and 5% CO2) for 3 days. Imaging started 6 hours after the addition of the compounds and was taken at 1-hour intervals.
# [2] = tested on: PC3 cells; experiment: Mitochondrial superoxide (MitoSOX red) and cellular ROS in PC3 cells; assay type: cell-based, human
# [3] = tested on: PC3 cells; experiment: Immunoblot of LAMP1, cathepsin D and p62 in PC3 cells; assay type: cell-based, human
# Excerpt: (§1) Western blot analysis, immunofluorescence, 1HC and TUNEL assay: For Western blot analysis, total protein lysates were subjected to SDS-PAGE and transferred to nitrocellulose. Antibodies used were: anti-Akt1, anti-Akt2, anti-Akt3, anti-total-Akt, anti-p-Akt (Ser473), anti-p-Akt (Thr308), anti-p-S6 (Ser235/236), anti-PARP and anti-cleaved caspase-3 (Cell Signaling Technology); anti-p-PRAS40 (Invitrogen); anti-p27^Kip1 (Santa Cruz Biotechnology); anti-LC3 (Novus); anti-LAMP2 and anti-Cathepsin D (BD Biosciences); and anti-GAPDH (Advanced Immunochemical Inc.). […] Detection and quantification were performed using an Odyssey infrared scanner (LICOR) using the manufacturer's software. For immunofluorescence staining, cells were fixed in 3% paraformaldehyde and permeabilized with 0.01% digitonin in PBS, followed by a rabbit polyclonal anti-LC3 (Abgent) primary antibody detected with a cy3-conjugated anti-rabbit secondary antibody (Jackson Immunoresearch). For IHC, formalin-fixed, paraffin-embedded specimens were collected. 5-μm-thick paraffin-embedded sections were stained using an anti-Ki-67 (MIB-1, DakoCytomation) antibody with the Dako ARK kit (Dako Corporation). Tissues were counterstained with haematoxylin, dehydrated, and mounted. In all cases, antigen retrieval was performed with the Dako Target Retrieval Kit as per manufacturer's instructions. For TUNEL assay, formalin-fixed, paraffin-embedded sections were stained using an in situ cell death detection kit (POD; Roche Diagnostic) according to the manufacturer's instructions.
# Because autophagy is a key function of the lysosomal compartment (Terman, A., B. Gustafsson, and U. T. Brunk, (2006), The lysosomal-mitochondrial axis theory of postmitotic aging and cell death. Chem Biol Interact. 163:29-37), we examined the lysosomal marker LAMPI and cathepsin D, the predominant lysosomal aspartic protease, by immunoblotting (FIG. 6, B and C). […] Cathepsin D is synthesized as a 43-kD preprocathepsin D that is cleaved cotranslationally and glycosylated to form a 46-kD procathepsin D, which is targeted to lysosomes yielding an intermediate that is further cleaved into a mature enzyme consisting of a 15-kD light chain and a 28-kD heavy chain.
# [4] = tested on: PC3 xenograft tumors; experiment: PC3 xenograft tumor growth; assay type: in vivo, mice
# Description: Xenograft study: Six- to 8-week-old female athymic nude nu/nu mice were purchased from Charles River Laboratories and maintained in Genentech's conventional animal facility. Mice were injected in the right flank with 5˜7.5×10^6 cells resuspended in 200 μl Hank's Balanced Salt Solution (Invitrogen). When tumors reached a mean volume of 100˜300 mm^3 the mice with similarly-sized tumors were grouped into treatment cohorts. […] Amber-colored water bottles were used and were changed 3 times per week. […] Tumors were measured with calipers and mice weighed twice per week. Mice whose tumors reached 2000 mm^3 or lost more than 20% body weight were euthanized. Between 8˜10 mice were used for each treatment group. Statistical significance was analyzed using the JMP software (SAS Institute, Inc.).
# We next examined the effect of Akt KDs on the ability of PC3 cells to maintain the growth of established tumors in vivo.
# [5] = tested on: PC3 cells; experiment: Mitochondrial membrane potential (MitoPT dye) in PC3 cells; assay type: cell-based, human; conditions: 0.5% FBS
# Description: FIG. 21. […] Images at 48 h are shown. […] Merged images between red and green channels are also shown (MitoPT-M). Scale bar: 20 μm. (B) Percentage of cells showing red punctate stains and diffuse green stains from treatments described in (A). >86 cells from two random fields of fluorescent images of each treatment were counted. Error bars represent standard deviations between the two fields. […] Total fluorescence intensity from all cells was collected using the Isocyte (Blueshift Biotechnologies), a laser scanning imager. Green fluorescence intensity is collected with a 488 nm laser and a 510-540 nm band pass filter, and normalized to cell number determined by Hoechst staining using a 405 nm laser and a 430-480 nm band pass filter. Error bars, standard deviation between two independent experiments. (D) Representative images of the green ROS signals and bright field (BF) taken under a Nikon TE300 inverted microscope. […] Scale bar: 20 μm.
# Cell Culture and Reagents: The PTEN^−/− and PTEN^+/+ MEFs were maintained as previously described (Sun, H., R. Lesche, D. M. Li, J. Liliental, H. Zhang, J. Gao, N. Gavrilova, B. Mueller, X. Liu, and H. Wu, (1999), PTEN modulates cell cycle progression and cell survival by regulating phosphatidylinositol 3,4,5,-trisphosphate and Akt/protein kinase B signaling pathway. Proc Natl Acad Sci USA. 96:6199-204). The PC3 and U87MG cells were maintained at 37° C. and 5% CO2 in DMEM/Ham's F-12 (1:1) containing 10% tetracycline-free fetal bovine serum. II-4 was from Calbiochem (Akt inhibitor VIII) (Barnett, S. F., D. Defeo-Jones, S. Fu, P. J. Hancock, K. M. Haskell, R. E. Jones, J. A. Kahana, A. M. Kral, K. Leander, L. L. Lee, J. Malinowski, E. M. McAvoy, D. D. Nahas, R. G. Robinson, and H. E. Huber, (2005), Identification and characterization of pleckstrin-homology-domain-dependent and isoenzyme-specific Akt inhibitors. Biochem J. 385:399-408). […] Image-iT LIVE Green Reactive Oxygen Species Detection Kit was purchased from Molecular Probes. MitoPT Mitochondria Permeability Transition Detection Kit was purchased from Immunochemistry Technologies, LLC.
# [6] = tested on: PC3 cells; experiment: Autophagy markers in PC3 cells (EM AVs, GFP-LC3, LC3-II/LC3-I, MDC, AO); assay type: cell-based, human
# Description: as §1, with “nitrocellulose.” for “nitrocellulose. Antibodies used were: anti-Akt1, anti-Akt2, anti-Akt3, anti-total-Akt, anti-p-Akt (Ser473), anti-p-Akt (Thr308), anti-p-S6 (Ser235/236), anti-PARP and anti-cleaved caspase-3 (Cell Signaling Technology); anti-p-PRAS40 (Invitrogen); anti-p27^Kip1 (Santa Cruz Biotechnology); anti-LC3 (Novus); anti-LAMP2 and anti-Cathepsin D (BD Biosciences); and anti-GAPDH (Advanced Immunochemical Inc.).”
# Ultrathin sections were stained with uranyl acetate and lead citrate. Numbers of AV were counted on systematically sampled cytoplasmic areas of 4.5 μm^2 (n≧64 per condition). The percent AV area was measured by means of a square mesh grid laid over ≧5 sets of systematically sampled micrographs with each set covering a cytoplasmic area ≧80 μm^2. The average percent of apoptotic nuclei in tumor tissues was calculated from the number of apoptotic nuclei in 3 to 4 sets of 100 systematically counted tumor cell nuclei.
# Multispectral imaging flow cytometry: Cells treated with various agents were stained with Acridine Orange and analyzed by the ImageStream system (Amnis Corporation, Seattle, Wash.) using the IDEAS image analysis program. The DNA AOGreen image and the vacuolar AO Red image were first compensated into separate channels, and then the percentage of apoptotic/anucleate cells (based on AO nuclear morphology and intensity) and vacuolated cells (AO Red+) were quantified. […] AORed Intensity is plotted on the second histogram with an arbitrary gate (R5) drawn to include events with the brightest AO Red intensity.
# [7] = Cell death in combination with CQ (FIG. 17); assay type: cell-based
# [8] = Autophagic vacuole accumulation by side scatter (SSC) in a flow cytometer; assay type: cell-based
# Excerpt: Inhibitors include 3-phenyl-2-(4-((4-(5-(pyridin-2-yl)-1H-1,2,4-triazol-3-yl)piperidin-1-yl)methyl)phenyl)-1,6-naphthyridin-5(6H)-one (II-3), benzyl 2-(4-(3-ethylureido)phenyl)-4-(1,4-oxazepan-4-yl)-5H-pyrrolo[3,4-d]pyrimidine-6(7H)-carboxylate (III-1); 1-ethyl-3-(4-(4-morpholino-7-(pyrimidin-2-yl)-5,6,7,8-tetrahydropyrido[3,4-d]pyrimidin-2-yl)phenyl)urea (III-2), (R)-1-(44(2-(2-aminopyrimidin-5-yl)-7-methyl-4-morpholinothieno[3,2-d]pyrimidin-6-yl)methyl)piperazin-1-yl)-2-hydroxypropan-1-one (III-3), 4-(2-(1H-indazol-4-yl)-6-((4-(methylsulfonyl)piperazin-1-yl)methyl)thieno[3,2-d]pyrimidin-4-yl)morpholine (III-6), (S)—N-(4-(benzo[d][1,3]dioxol-5-yl)thiazol-2-yl)-N-(3-(2-formylpiperidin-1-yl)propyl)thiophene-2-carboxamide (IV-2) and Rapamycin.
# FIG. 14 depicts CQ (10 μM) increases the number and size of autophagic vacuoles when combined with the various mTOR, PI3K, and Akt inhibitors.
# [9] = tested on: SKBR3Breast cancer cell line; experiment: Autophagy (Acridine Orange) and apoptosis (AnnV/PI) induction with CQ; assay type: cell-based
# Excerpt: (§2) FIGS. 32A-B and 34A-B depict data showing correlation between Autophagy induction and apoptosis induction when each compound is combined with CQ at 24 hrs after the given compound treatment measured by Acridine Orange staining in 537MEL melanoma cell line and SKBR3Breast cancer cell line, respectively. Control was DMSO.
# (§3) FIGS. 33A-G and 35A-G show dose response curve of apoptosis induction in 537MEL melanoma and SKBR3Breast cancer cells, respectively, treated with the indicated compound alone or with 10 μM CQ, measured by Annezin V (AnnV) and Propidium iodide (PI) staining.
# [10] = tested on: 537MEL melanoma cell line; experiment: as above; assay type: cell-based
# Excerpt: as §2, §3
# [11] = 24 hrs, Acridine Orange staining
smiles,measurement,setting,value
"CCN(CC)CCCC(C)Nc1ccnc2cc(Cl)ccc12 (stereo not shown) [CQ, chloroquine]","cell division and morphology, agent alone",[1],mild decrease in cell division and a gradual accumulation of dark particles in the perinuclear region
same,"MitoSOX fluorescence, agent alone",[2],mild increase in MitoSOX signal
same,"cellular ROS signal, agent alone",[2],little effect on ROS levels
same,p62 level,[3],increased the level of p62 both with and without Akti; also recorded: blocked p62 degradation both with and without II-4 treatment
same,tumors with stasis maintained throughout the study,"[4]; PC3-shAkt123 xenograft, both Dox and CQ",20%
same,tumors with complete regression,"[4]; PC3-shAkt123 xenograft, both Dox and CQ, intraperitoneal",40%
same,"incidence of complete tumor remission, CQ combined with Akt knockdown","[4]; mouse, in vivo",significantly increased the incidence of complete tumor remission; also recorded: increased the incidence of complete tumor remissions in vivo
same,"mitochondrial membrane potential, agent alone",[5],did not have a significant effect
same,"AVO accumulation, agent alone (multispectral imaging flow cytometry)",[6],induced AVO accumulation without significant loss of viability
same,"induction of AV accumulation / autophagy, agent alone",[6],induced accumulation of AVs
"CS(=O)(=O)N1CCN(Cc2cc3nc(-c4cccc5[nH]ncc45)nc(N4CCOCC4)c3s2)CC1 [III-6, 4-(2-(1H-indazol-4-yl)-6-((4-(methylsulfonyl)piperazin-1-yl)methyl)thieno[3,2-d]pyrimidin-4-yl)morpholine]",interaction with CQ on cell death,[7],synergize with CQ to accelerate cell death
same,"autophagic vacuole accumulation (SSC), inhibitor alone",[8],induce increased autophagic vacuole accumulation
"O=C(NOC[C@H](O)CO)c1ccc(F)c(F)c1Nc1ccc(I)cc1F [VII, (R)—N-(2,3-dihydroxypropoxy)-3,4-difluoro-2-(2-fluoro-4-iodophenylamino)benzamide]",apoptosis induction when combined with CQ,"[9]; 10 μM CQ, AnnV and PI staining",no synergistic apoptosis induction is shown when combined with CQ; also recorded: CQ does not induce apoptosis in cancer cells
same,autophagy induction,[9]; [11],does not induce an increase in autophagy
same,apoptosis induction when combined with CQ,"[10]; 10 μM CQ, AnnV and PI staining",no synergistic apoptosis induction is shown when combined with CQ; also recorded: CQ does not induce apoptosis in cancer cells
same,autophagy induction,[10]; [11],does not induce an increase in autophagy
